Experimental data from patent US20090304632A1, “HETEROCYCLIC NF-kB INHIBITORS” (priority 2007, published 2009).
pEC50, pIC50: −log10 of the molar value. Read-outs that look alike come from different tables or passages of the source.

Experiments:
NF-κB = NF-κB inflammation assay (PRINCESS NINA Instant Assay, A549-NF-κB-SEAP reporter cells); type: cell-based; conditions: for pEC50: A549-NF-κB-SEAP reporter cells stimulated with 2 ng/ml TNF-α, read-out: Biological activity (EC50, NF-κB inflammation assay)
influenza strain H7N7 = type: in vivo, mouse
A549 cells = assay: Determination of cell viability (MTT staining); type: cell-based
Description: Cell lines (e.g. A549) incubated with compounds of the invention were assessed on cell viability by means of MTT staining.

influenza strain H5N1 = type: in vivo, mouse
human PBMCs = assay: Cytokine production of human PBMCs; type: cell-based; conditions: for pEC50: Homo sapiens, PBMC, 48 h, 48 hours
hematological cell lines = assay: In-vitro antitumor activity in human tumor cell lines (monolayer assay, propidium iodide); type: cell-based
human lymphocyte = assay: T-lymphocyte proliferation assay (stimulated PBMC, BrdU); type: cell-based
influenza virus = assay: Antiviral combination with interferon-α
mouse splenocytes = assay: Cytokine production of mouse splenocytes stimulated with CD3/CD28; type: cell-based; conditions: 10 μM
[1] = tested on: Fowl Plaque Virus, H7N7-strain; type: cell-based, Influenza A virus; conditions: 5 μM, infected A549 cells
[2] = tested on: Influenza A virus H5N1-strain; type: cell-based; conditions: 5 μM, infected A549 cells
[3] = tested on: bird flu virus H5N1 (strain MB1); type: in vivo, mouse; conditions: H5N1 infected mice, daily 15 mg/kg i.p. for two days
mouse T-cell = assay: Mouse T-cell proliferation; type: cell-based

Question: With `COc1cc(N2CCC(c3nc(C(=O)Nc4nc5ccc(C(=O)c6ccccc6)cc5[nH]4)cs3)CC2)nc(OC)n1` [Compound 1, N-(6-benzoyl-1H-benzo[d]imidazol-2-yl)-2-(1-(2,6-dimethoxypyrimidin-4-yl)piperidin-4-yl)thiazole-4-carboxamide] as the molecule, how does the pEC50 (NF-κB) read?
Answer: > 5.00

Question: `O=C(c1ccccc1)c1ccc2nc(NC(=O)c3csc(C4CCN(c5ncnc6nc[nH]c56)CC4)n3)[nH]c2c1` [Compound 2, 2-(1-(7H-purin-6-yl)piperidin-4-yl)-N-(6-benzoyl-1H-benzo[d]imidazol-2-yl)thiazole-4-carboxamide] was tested. Which pEC50 (NF-κB) did it give?
Answer: > 5.00

Question: `N#Cc1ccnc(N2CCC(c3nc(C(=O)Nc4nc5ccc(C(=O)c6ccccc6)cc5[nH]4)cs3)CC2)c1` [Compound 3, N-(6-benzoyl-1H-benzo[d]imidazol-2-yl)-2-(1-(4-cyanopyridin-2-yl)piperidin-4-yl)thiazole-4-carboxamide] was tested. Which pEC50 (NF-κB) did it give?
Answer: 4.00 to 4.52

Question: What does the source list for `O=C(c1ccccc1)c1ccc2nc(NC(=O)c3csc(C4CCN(c5ncnc6ccsc56)CC4)n3)[nH]c2c1` [Compound 4, N-(6-benzoyl-1H-benzo[d]imidazol-2-yl)-2-(1-(thieno[3,2-d]pyrimidin-4-yl)piperidin-4-yl)thiazole-4-carboxamide]?
Answer: protection of infected mice (survival) (influenza strain H7N7; LD50 H7N7, 15 mg/kg daily i.p. day 0 to day 8, end day 14, p<0.05): complete protection; protection of infected mice (survival) (influenza strain H7N7; LD50 H7N7, daily i.v. day 0 to day 4, doses equal or higher 5 mg/kg, end day 14, p<0.05): significant protection; cytotoxicity (A549 cells): not cytotoxic; cell viability versus DMSO treated and untreated cells (A549 cells; 5 μM, absence of virus, MTT staining, 96 hours): the same; protection of infected mice (survival) (influenza strain H5N1; LD50 H5N1, treatment from day 4 to day 10, 7.5 mg/kg b.id. and 15 mg/kg daily i.p., end day 14, p=0.05): significant protection; protection of infected mice (survival) (influenza strain H5N1; LD50 H5N1, two times 7.5 mg/kg daily i.p. day 0 to day 10, end day 14, p<0.05): significant protection; pEC50 (human PBMCs; LPS stimulation, read-out: IL-6 secretion EC50): 6.22; pEC50 (human PBMCs; LPS stimulation, read-out: TNF-alpha secretion EC50): 4.90; pEC50 (human PBMCs; PHA stimulation, read-out: IL-6 secretion EC50): 6.70; pEC50 (human PBMCs; PHA stimulation, read-out: INF-gamma secretion EC50): 5.05; pEC50 (human PBMCs; PHA stimulation, read-out: TNF-alpha secretion EC50): 5.10; secretion of cytokines like IL-1beta, IL-6, IL-8, IFN-gamma, and TNF-alpha (human PBMCs; stimulated with CL075): blocked; secretion of cytokines like IL-6 and IL-8 (human PBMCs; stimulated with IL-1beta): blocked; secretion of cytokines like IL-8, IL-1beta, INF-gamma, TNF-alpha, IL-10, and IL-6 (human PBMCs; stimulated with LPS): blocked; secretion of cytokines like IL-6 and IL-8 (human PBMCs; stimulated with ODN1668): blocked; secretion of cytokines like IL-8 and IFN-gamma (human PBMCs; stimulated with ODN2216): blocked; secretion of cytokines like IL-1beta, IL-6, IL-2, IL-8, IL-10, IL-12p70, INF-gamma, and TNF-alpha (human PBMCs; stimulated with PHA): blocked; secretion of cytokines like IL-1beta, IL-6, and IL-8 (human PBMCs; stimulated with TNF-alpha): blocked; multiple myeloma derived cell lines above average sensitive (hematological cell lines; cell lines derived from multiple myelomas): 4 out of 5; score of tumor sensitivity (hematological cell lines; panel of hematological cell lines): excellent score of tumor sensitivity; human lymphocyte proliferation (human lymphocyte): inhibits; synergism in anti-viral efficacy and toxicity antagonism of combination with INFα versus IFNα combination with ribavirin (influenza virus; combination with INFα): stronger synergism; antiviral effects in combination with INF-α (influenza virus; combination with interferon-α): synergistic antiviral effects; cytokine production, all measured cytokines (mouse splenocytes; after 24 hours): completely inhibited; reduction of secretion of most cytokines (mouse splenocytes; after 48 hours): more than 90 % of the DMSO control; pEC50 (NF-κB): > 5.00; pIC50 (NF-κB; read-out: NF-κB reporter gene assay IC50): ~7.00; reduction of virus titer [1]: 5 log units; reduction of virus titer [2]: 4 log units; expression of H5N1 specific mRNA in the lung [3]: reduced expression; transcription of IL-6 and IP-10 genes in the lung [3]: reduced transcription; mouse T-cell proliferation (mouse T-cell): inhibits

Question: `O=C(c1ccccc1)c1ccc2nc(NC(=O)c3csc(C4CCN(c5cc(C(F)(F)F)ncn5)CC4)n3)[nH]c2c1` [Compound 5, N-(6-benzoyl-1H-benzo[d]imidazol-2-yl)-2-(1-(6-(trifluoromethyl)pyrimidin-4-yl)piperidin-4-yl)thiazole-4-carboxamide] was tested. Which pEC50 (NF-κB) did it give?
Answer: 4.52 to 5.00

Question: How did the pEC50 (NF-κB) turn out when `COc1cc2c(N3CCC(c4nc(C(=O)Nc5nc6cc(C(=O)c7ccccc7)ccc6[nH]5)cs4)CC3)ncnc2cc1OCCCN1CCN(C)CC1` [Compound 6, N-(5-benzoyl-1H-benzo[d]imidazol-2-yl)-2-(1-(6-methoxy-7-(3-(4-methylpiperazin-1-yl)propoxy)quinazolin-4-yl)piperidin-4-yl)thiazole-4-carboxamide] was run?
Answer: > 5.00

Question: With `O=CN1CCC(c2nc(C(=O)Nc3nc4cc(C(=O)c5ccccc5)ccc4[nH]3)cs2)CC1` [Compound 7, N-(5-benzoyl-1H-benzo[d]imidazol-2-yl)-2-(1-formylpiperidin-4-yl)thiazole-4-carboxamide] as the molecule, how does the pEC50 (NF-κB) read?
Answer: > 5.00

Question: `COC(=O)c1cn2ncnc(N3CCC(c4nc(C(=O)Nc5nc6cc(C(=O)c7ccccc7)ccc6[nH]5)cs4)CC3)c2c1C` [Compound 8, Methyl 4-(4-(4-(5-benzoyl-1H-benzo[d]imidazol-2-ylcarbamoyl)thiazol-2-yl)piperidin-1-yl)-5-methylpyrrolo[1,2-f][1,2,4]triazine-6-carboxylate] was tested. Which pEC50 (NF-κB) did it give?
Answer: 4.00 to 4.52

Question: `Cc1cc2nccc(N3CCC(c4nc(C(=O)Nc5nc6cc(C(=O)c7ccccc7)ccc6[nH]5)cs4)CC3)n2n1` [Compound 9, N-(5-benzoyl-1H-benzo[d]imidazol-2-yl)-2-(1-(2-methylpyrazolo[1,5-a]pyrimidin-7-yl)piperidin-4-yl)thiazole-4-carboxamide] was tested. Which pEC50 (NF-κB) did it give?
Answer: > 5.00

Question: `O=C(c1ccccc1)c1ccc2[nH]c(NC(=O)c3csc(C4CCN(c5ccnc6ncnn56)CC4)n3)nc2c1` [Compound 10, 2-(1-([1,2,4]triazolo[1,5-a]pyrimidin-7-yl)piperidin-4-yl)-N-(5-benzoyl-1H-benzo[d]imidazol-2-yl)thiazole-4-carboxamide] was tested. Which pEC50 (NF-κB) did it give?
Answer: > 5.00

Question: How did the pEC50 (NF-κB) turn out when `COC(=O)c1nc2nccc(N3CCC(c4nc(C(=O)Nc5nc6cc(C(=O)c7ccccc7)ccc6[nH]5)cs4)CC3)n2n1` [Compound 11, Methyl 7-(4-(4-(5-benzoyl-1H-benzo[d]imidazol-2-ylcarbamoyl)thiazol-2-yl)piperidin-1-yl)-[1,2,4]triazolo[1,5-a]pyrimidine-2-carboxylate] was run?
Answer: > 5.00

Question: How did the pEC50 (NF-κB) turn out when `O=C(c1ccccc1)c1ccc2nc(NC(=O)c3csc(C4CCN(C(=O)Nc5cc(Cl)nc(Cl)c5)CC4)n3)[nH]c2c1` [Compound 12, N-(6-benzoyl-1H-benzo[d]imidazol-2-yl)-2-(1-(2,6-dichloropyridin-4-ylcarbamoyl)piperidin-4-yl)thiazole-4-carboxamide] was run?
Answer: > 5.00

Question: `COc1nc(OC)nc(N2CCC(c3nc(C(=O)Nc4nc5cc(C(=O)c6ccccc6)ccc5[nH]4)cs3)CC2)n1` [Compound 13, N-(5-benzoyl-1H-benzo[d]imidazol-2-yl)-2-(1-(4,6-dimethoxy-1,3,5-triazin-2-yl)piperidin-4-yl)thiazole-4-carboxamide] was tested. Which pEC50 (NF-κB) did it give?
Answer: > 5.00

Question: `COc1cc2ncnc(N3CCC(c4nc(C(=O)Nc5nc6cc(C(=O)c7ccccc7)ccc6[nH]5)cs4)CC3)c2cc1OC` [Compound 14, N-(5-benzoyl-1H-benzo[d]imidazol-2-yl)-2-(1-(6,7-dimethoxyquinazolin-4-yl)piperidin-4-yl)thiazole-4-carboxamide] was tested. Which pEC50 (NF-κB) did it give?
Answer: > 5.00

Question: How did the pEC50 (NF-κB) turn out when `O=C(c1ccccc1)c1ccc2[nH]c(NC(=O)c3csc(C4CCN(c5ccncc5[N+](=O)[O-])CC4)n3)nc2c1` [Compound 15, N-(5-benzoyl-1H-benzo[d]imidazol-2-yl)-2-(1-(3-nitropyridin-4-yl)piperidin-4-yl)thiazole-4-carboxamide] was run?
Answer: > 5.00

Question: How did the pEC50 (NF-κB) turn out when `O=C(c1ccccc1)c1ccc2[nH]c(NC(=O)c3csc(C4CCN(C(=O)c5ccccc5OC(F)(F)F)CC4)n3)nc2c1` [Compound 16, N-(5-benzoyl-1H-benzo[d]imidazol-2-yl)-2-(1-(2-(trifluoromethoxy)benzoyl)piperidin-4-yl)thiazole-4-carboxamide] was run?
Answer: > 5.00

Question: `Cc1cc2nnc(C(=O)N3CCC(c4nc(C(=O)Nc5nc6cc(C(=O)c7ccccc7)ccc6[nH]5)cs4)CC3)c(C)n2n1` [Compound 17, N-(5-benzoyl-1H-benzo[d]imidazol-2-yl)-2-(1-(4,7-dimethylpyrazolo[5,1-c][1,2,4]triazine-3-carbonyl)piperidin-4-yl)thiazole-4-carboxamide] was tested. Which pEC50 (NF-κB) did it give?
Answer: > 5.00
